{
  "source": "ChEMBL document CHEMBL1649467",
  "about": "“Impact of human serum albumin on oritavancin in vitro activity against enterococci” (Antimicrob Agents Chemother, 2009)",
  "key": {"Enterococcus faecium [1]": {"tested_on": "Enterococcus faecium", "assay": "Bactericidal activity against vancomycin-resistant Enterococcus faecium 1119175 expressing vanB gene assessed as change in bacterial count at 64 ug/ml by time-kill assay", "assay_type": "functional"}, "Enterococcus faecium [2]": {"tested_on": "Enterococcus faecium", "assay": "Bactericidal activity against vancomycin-resistant Enterococcus faecium 1059060 expressing vanA gene assessed as change in bacterial count at 4 ug/ml by time-kill assay", "assay_type": "functional"}, "Enterococcus faecium [3]": {"tested_on": "Enterococcus faecium", "assay": "Bactericidal activity against vancomycin-resistant Enterococcus faecium 1059060 expressing vanA gene assessed as change in bacterial count at 64 ug/ml by time-kill assay", "assay_type": "functional"}, "[4]": {"assay": "Free fraction in healthy human male at 4 mg/kg, iv every 24 hrs by LC/MS/MS analysis", "assay_type": "ADME, organism-based", "design": "dose 4 mg/kg, route intravenous", "conditions": "in vivo"}, "Enterococcus faecalis [5]": {"tested_on": "Enterococcus faecalis", "assay": "Antimicrobial activity against vancomycin-susceptible Enterococcus faecalis ATCC 29212 by broth dilution method", "assay_type": "functional"}, "[6]": {"assay": "Cmax in healthy human male at 4 mg/kg, iv every 24 hrs by LC/MS/MS analysis", "assay_type": "ADME, organism-based", "design": "dose 4 mg/kg, route intravenous", "conditions": "in vivo"}, "Enterococcus faecalis [7]": {"tested_on": "Enterococcus faecalis", "assay": "Bactericidal activity against vancomycin-resistant Enterococcus faecalis 1058946 expressing vanA gene assessed as change in bacterial count at 4 ug/ml by time-kill assay", "assay_type": "functional"}, "Enterococcus faecalis [8]": {"tested_on": "Enterococcus faecalis", "assay": "Bactericidal activity against vancomycin-resistant Enterococcus faecalis 1058946 expressing vanA gene assessed as change in bacterial count at 64 ug/ml by time-kill assay", "assay_type": "functional"}, "Enterococcus faecium [9]": {"tested_on": "Enterococcus faecium", "assay": "Bactericidal activity against vancomycin-resistant Enterococcus faecium ATCC 51559 expressing vanA gene assessed as change in bacterial count at 64 ug/ml by time-kill assay", "assay_type": "functional"}, "Enterococcus faecalis [10]": {"tested_on": "Enterococcus faecalis", "assay": "Selectivity ratio of MIC for Enterococcus faecalis ATCC 51299 in presence of 4% HSA to MIC for Enterococcus faecalis 51299", "assay_type": "functional"}, "Enterococcus faecium [11]": {"tested_on": "Enterococcus faecium", "assay": "Antimicrobial activity against vancomycin-resistant Enterococcus faecium 1059060 by broth dilution method in presence of 4% HSA", "assay_type": "functional"}, "Enterococcus faecalis [12]": {"tested_on": "Enterococcus faecalis", "assay": "Selectivity ratio of MIC for Enterococcus faecalis ATCC 29212 in presence of 4% HSA to MIC for Enterococcus faecalis ATCC 29212", "assay_type": "functional"}, "Enterococcus faecium [13]": {"tested_on": "Enterococcus faecium", "assay": "Antimicrobial activity against vancomycin-resistant Enterococcus faecium ATCC 51559 by broth dilution method", "assay_type": "functional"}, "Enterococcus faecalis [14]": {"tested_on": "Enterococcus faecalis", "assay": "Antimicrobial activity against vancomycin-resistant Enterococcus faecalis ATCC 51299 by broth dilution method in presence of 4% HSA", "assay_type": "functional"}, "Enterococcus faecalis [15]": {"tested_on": "Enterococcus faecalis", "assay": "Bactericidal activity against vancomycin-susceptible Enterococcus faecalis ATCC 29212 assessed as change in bacterial count at 4 ug/ml by time-kill assay", "assay_type": "functional"}, "Enterococcus faecalis [16]": {"tested_on": "Enterococcus faecalis", "assay": "Bactericidal activity against vancomycin-resistant Enterococcus faecalis ATCC 51299 expressing vanB gene assessed as change in bacterial count at 64 ug/ml by time-kill assay", "assay_type": "functional"}, "Enterococcus faecium [17]": {"tested_on": "Enterococcus faecium", "assay": "Antimicrobial activity against vancomycin-resistant Enterococcus faecium 1119175 by broth dilution method", "assay_type": "functional"}, "Enterococcus faecalis [18]": {"tested_on": "Enterococcus faecalis", "assay": "Antimicrobial activity against vancomycin-resistant Enterococcus faecalis 1058946 by broth dilution method", "assay_type": "functional"}, "Enterococcus faecium [19]": {"tested_on": "Enterococcus faecium", "assay": "Bactericidal activity against vancomycin-resistant Enterococcus faecium ATCC 51559 expressing vanA gene assessed as change in bacterial count at 4 ug/ml by time-kill assay", "assay_type": "functional"}, "Enterococcus faecalis [20]": {"tested_on": "Enterococcus faecalis", "assay": "Antimicrobial activity against vancomycin-resistant Enterococcus faecalis ATCC 51299 by broth dilution method", "assay_type": "functional"}, "Enterococcus faecium [21]": {"tested_on": "Enterococcus faecium", "assay": "Antimicrobial activity against vancomycin-resistant Enterococcus faecium ATCC 51559 by broth dilution method in presence of 4% HAS", "assay_type": "functional"}, "Enterococcus faecalis [22]": {"tested_on": "Enterococcus faecalis", "assay": "Selectivity ratio of MIC for Enterococcus faecalis 1058946 in presence of 4% HSA to MIC for Enterococcus faecalis 1058946", "assay_type": "functional"}, "Enterococcus faecium [23]": {"tested_on": "Enterococcus faecium", "assay": "Bactericidal activity against vancomycin-resistant Enterococcus faecium 1119175 expressing vanB gene assessed as change in bacterial count at 4 ug/ml by time-kill assay", "assay_type": "functional"}, "Enterococcus faecium [24]": {"tested_on": "Enterococcus faecium", "assay": "Antimicrobial activity against vancomycin-resistant Enterococcus faecium 1059060 by broth dilution method", "assay_type": "functional"}, "Enterococcus faecium [25]": {"tested_on": "Enterococcus faecium", "assay": "Antimicrobial activity against vancomycin-resistant Enterococcus faecium 1119175 by broth dilution method in presence of 4% HSA", "assay_type": "functional"}, "Enterococcus faecalis [26]": {"tested_on": "Enterococcus faecalis", "assay": "Antimicrobial activity against vancomycin-resistant Enterococcus faecalis 1058946 by broth dilution method in presence of 4% HSA", "assay_type": "functional"}, "Enterococcus faecium [27]": {"tested_on": "Enterococcus faecium", "assay": "Selectivity ratio of MIC for Enterococcus faecium 1119175 in presence of 4% HSA to MIC for Enterococcus faecium 1119175", "assay_type": "functional"}, "Enterococcus faecalis [28]": {"tested_on": "Enterococcus faecalis", "assay": "Bactericidal activity against vancomycin-susceptible Enterococcus faecalis ATCC 29212 assessed as change in bacterial count at 64 ug/ml by time-kill assay", "assay_type": "functional"}, "Enterococcus faecium [29]": {"tested_on": "Enterococcus faecium", "assay": "Selectivity ratio of MIC for Enterococcus faecium 1059060 in presence of 4% HSA to MIC for Enterococcus faecium 1059060", "assay_type": "functional"}, "Enterococcus faecium [30]": {"tested_on": "Enterococcus faecium", "assay": "Selectivity ratio of MIC for Enterococcus faecium ATCC 51559 in presence of 4% HSA to MIC for Enterococcus faecium ATCC 51559", "assay_type": "functional"}, "Enterococcus faecalis [31]": {"tested_on": "Enterococcus faecalis", "assay": "Antimicrobial activity against vancomycin-susceptible Enterococcus faecalis ATCC 29212 by broth dilution method in presence of 4% HSA", "assay_type": "functional"}, "Enterococcus faecalis [32]": {"tested_on": "Enterococcus faecalis", "assay": "Bactericidal activity against vancomycin-resistant Enterococcus faecalis ATCC 51299 expressing vanB gene assessed as change in bacterial count at 4 ug/ml by time-kill assay", "assay_type": "functional"}},
  "data": [
    {"smiles": "CCCCCCCCCC(=O)N[C@@H](Cc1c[nH]c2ccccc12)C(=O)N[C@H](CC(N)=O)C(=O)N[C@@H](CC(=O)O)C(=O)N[C@@H]1C(=O)NCC(=O)N[C@@H](CCCN)C(=O)N[C@@H](CC(=O)O)C(=O)N[C@H](C)C(=O)N[C@@H](CC(=O)O)C(=O)NCC(=O)N[C@H](CO)C(=O)N[C@@H]([C@H](C)CC(=O)O)C(=O)N[C@@H](CC(=O)c2ccccc2N)C(=O)O[C@@H]1C", "values": [
      {"measurement": "log10CFU/ml", "setting": "Enterococcus faecium [1]", "result": 1.5},
      {"measurement": "log10CFU/ml", "setting": "Enterococcus faecium [2]", "result": -0.54},
      {"measurement": "log10CFU/ml", "setting": "Enterococcus faecium [3]", "result": -0.78},
      {"measurement": "fraction unbound at 24 h", "setting": "[4]", "result": 0.08},
      {"measurement": "MIC", "setting": "Enterococcus faecalis [5]", "result": 2, "unit": "µg/mL"},
      {"measurement": "Cmax", "setting": "[6]", "result": 64, "unit": "µg/mL"},
      {"measurement": "log10CFU/ml", "setting": "Enterococcus faecalis [7]", "result": 2.5},
      {"measurement": "log10CFU/ml", "setting": "Enterococcus faecalis [8]", "result": -0.4},
      {"measurement": "log10CFU/ml", "setting": "Enterococcus faecium [9]", "result": 1.4},
      {"measurement": "Ratio", "setting": "Enterococcus faecalis [10]", "result": 16},
      {"measurement": "MIC", "setting": "Enterococcus faecium [11]", "result": 8, "unit": "µg/mL"},
      {"measurement": "Ratio", "setting": "Enterococcus faecalis [12]", "result": 16},
      {"measurement": "MIC", "setting": "Enterococcus faecium [13]", "result": 2, "unit": "µg/mL"},
      {"measurement": "MIC", "setting": "Enterococcus faecalis [14]", "result": 32, "unit": "µg/mL"},
      {"measurement": "log10CFU/ml", "setting": "Enterococcus faecalis [15]", "result": 1.9},
      {"measurement": "log10CFU/ml", "setting": "Enterococcus faecalis [16]", "result": 1.4},
      {"measurement": "MIC", "setting": "Enterococcus faecium [17]", "result": 4, "unit": "µg/mL"},
      {"measurement": "MIC", "setting": "Enterococcus faecalis [18]", "result": 2, "unit": "µg/mL"},
      {"measurement": "log10CFU/ml", "setting": "Enterococcus faecium [19]", "result": 2.4},
      {"measurement": "MIC", "setting": "Enterococcus faecalis [20]", "result": 2, "unit": "µg/mL"},
      {"measurement": "MIC", "setting": "Enterococcus faecium [21]", "result": 32, "unit": "µg/mL"},
      {"measurement": "Ratio", "setting": "Enterococcus faecalis [22]", "result": 8},
      {"measurement": "log10CFU/ml", "setting": "Enterococcus faecium [23]", "result": 2.3},
      {"measurement": "MIC", "setting": "Enterococcus faecium [24]", "result": 1, "unit": "µg/mL"},
      {"measurement": "MIC", "setting": "Enterococcus faecium [25]", "result": 64, "unit": "µg/mL"},
      {"measurement": "MIC", "setting": "Enterococcus faecalis [26]", "result": 16, "unit": "µg/mL"},
      {"measurement": "Ratio", "setting": "Enterococcus faecium [27]", "result": 16},
      {"measurement": "log10CFU/ml", "setting": "Enterococcus faecalis [28]", "result": 0.26},
      {"measurement": "Ratio", "setting": "Enterococcus faecium [29]", "result": 8},
      {"measurement": "Ratio", "setting": "Enterococcus faecium [30]", "result": 16},
      {"measurement": "MIC", "setting": "Enterococcus faecalis [31]", "result": 32, "unit": "µg/mL"},
      {"measurement": "log10CFU/ml", "setting": "Enterococcus faecalis [32]", "result": 2.3}
    ]}
  ]
}
